Experimental data reported in BigSolDB 2.1.

CN1C(C(=O)Nc2ccccn2)=C(O)c2ccccc2S1(=O)=O
solubility (mole fraction)
Settings | 293.2 K | 298.2 K | 303.2 K | 308.2 K | 313.2 K
in ethanol | 0.000103 | 0.000177 | 0.000334 | 0.000553 | 0.00078
in ethyl acetate | 0.00426 | 0.00497 | 0.0057 | 0.00661 | 0.00741
